Experimental data published in patent US20190231768A1, “P[…] TREATING DRUG INDUCED DYSKINESIAS” (PRILENIA THERAPEUTICS DEVELOPMENT LTD., priority 2017, published 2019).
Like-named read-outs stand apart in the source and are kept apart here.

Assays:
Adrenergic α2A = Adrenergic α2A (Homo sapiens, UniProt P08913)
Protocol: (§1) NMDA, 5-HT6 and tachykinin NK1 receptors along with the dopamine transporter (DAT), norepinephrine transporter (NET) and serotonin transporter (SERT). The specific ligand binding to the receptors was defined as the difference between the total binding and the nonspecific binding determined in the presence of an excess of unlabeled ligand. IC50 values were determined by a non-linear, least squares regression analysis using MathIQ™ (ID Business Solutions Ltd., UK). […] Hill coefficient (nH), defining the slope of the competitive binding curve, was calculated using MathIQ™.

[1] = target: Dopamine transporter (DAT) (Homo sapiens, UniProt Q01959)
Protocol: as §1

Muscarinic M2 = Muscarinic M2 (Homo sapiens, UniProt P08172)
Protocol: as §1

NMDAR = system: NMDAR
Protocol: as §1

Serotonin 5-HT1A = Serotonin 5-HT1A (Homo sapiens, UniProt P08908)
Protocol: as §1

Serotonin 5-HT2A = Serotonin 5-HT2A (Homo sapiens, UniProt P28223)
Protocol: as §1

Serotonin 5-HT7 = Serotonin 5-HT7 (Homo sapiens, UniProt P34969)
Protocol: as §1

[2] = target: Serotonin transporter (SERT) (Homo sapiens, UniProt P31645)
Protocol: as §1

Sigma-1 (σ1R) = Sigma-1 (σ1R) (Homo sapiens, UniProt Q99720)
Protocol: as §1

Tachykinin NK1 = Tachykinin NK1 (Homo sapiens, UniProt P25103)
Protocol: as §1

D2R [3] = target: T1, D2R (Rattus norvegicus, UniProt P61169); assay: in vivo; details: po, read-out: % D2R occupancy
From the text: (§2) NHP σ1R occupancy data are extrapolated from in vitro binding investigations with 3H-fluspidine, known and specific σ1R tracer, against human σ1R.

σ1R [4] = target: T2, σ1R (Homo sapiens, UniProt Q99720); assay: in vivo
From the text: as §2

σ1R [5] = target: T3, σ1R (Rattus norvegicus, UniProt Q9R0C9); assay: in vivo; details: po, read-out: % σ1R occupancy
From the text: as §2

D2R [6] = details: for % D2R occupancy: NHP, based on 11C-raclopride PET
From the text: as §2

[7] = target: dopamine-2 receptor (D2R) (Homo sapiens, UniProt P14416); details: 90 mg
From the text: (§3) The study consisted of a screening period of up to 8 weeks prior to first dosing of tracer, including a Ti three-dimensional magnetization-prepared rapid acquisition gradient echo (MPRAGE 3D) magnetic resonance imaging (MRI) scan (visit 1), a study period of up to 4 weeks (including visits 2 and 3), and a follow-up visit (visit 4). […] Each dose cohort comprised up to 4 subjects. Although every subject of each dose cohort was expected to receive the same dose, it was also possible to change the dose level within a cohort due to the adaptive design of the study.

sigma-1 receptor (S1R) = sigma-1 receptor (S1R) (Homo sapiens, UniProt Q99720)
From the text: as §3

[8] = system: human subject afflicted with LID; details: greater than 100 mg/day oral, add-on to levodopa
From the text: The therapy provides efficacy in treating the patient without undue adverse side effects or affecting the safety of the treatment: […]

D2R [9] = target: T4, D2R (Homo sapiens, UniProt P14416); details: human 67.5 mg bid; based on human PET data and PK profile
[10] = system: human subject afflicted with LID; details: 45, 90, 135 or 180 mg/day oral, add-on to amantadine
[11] = system: human subject afflicted with a DIMD; details: 45, 90, 135 or 180 mg/day oral, add-on
σ1R [12] = target: T2, σ1R; assay: in vivo; details: read-out: % σ1R occupancy
D2R [13] = target: T4, D2R; assay: in vivo; details: read-out: % D2R occupancy
σ1R [14] = target: T3, σ1R; details: 3 mg/kg PO; cited from earlier work
D2R [15] = target: T1, D2R; details: cited from earlier work
6-OHDA-lesioned rat = details: 25 μmole/kg (8 mg/kg); cited from earlier work
[16] = system: patients with Huntington's Disease (HD); details: 45 mg twice daily (90 mg/day); cited from earlier work

T4 sequence (P14416 whole entry): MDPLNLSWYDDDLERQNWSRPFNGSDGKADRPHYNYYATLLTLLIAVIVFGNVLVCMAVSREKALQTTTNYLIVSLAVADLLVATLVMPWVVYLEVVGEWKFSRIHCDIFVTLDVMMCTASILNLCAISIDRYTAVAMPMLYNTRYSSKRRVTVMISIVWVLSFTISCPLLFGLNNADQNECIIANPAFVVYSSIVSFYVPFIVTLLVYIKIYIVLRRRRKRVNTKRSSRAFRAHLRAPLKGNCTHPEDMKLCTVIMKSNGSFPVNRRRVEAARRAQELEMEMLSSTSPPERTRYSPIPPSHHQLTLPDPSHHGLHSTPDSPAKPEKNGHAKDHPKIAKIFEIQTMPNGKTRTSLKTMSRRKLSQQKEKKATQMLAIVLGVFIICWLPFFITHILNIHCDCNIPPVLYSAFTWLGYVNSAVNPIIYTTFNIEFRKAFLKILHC
T1 sequence (P61169 whole entry): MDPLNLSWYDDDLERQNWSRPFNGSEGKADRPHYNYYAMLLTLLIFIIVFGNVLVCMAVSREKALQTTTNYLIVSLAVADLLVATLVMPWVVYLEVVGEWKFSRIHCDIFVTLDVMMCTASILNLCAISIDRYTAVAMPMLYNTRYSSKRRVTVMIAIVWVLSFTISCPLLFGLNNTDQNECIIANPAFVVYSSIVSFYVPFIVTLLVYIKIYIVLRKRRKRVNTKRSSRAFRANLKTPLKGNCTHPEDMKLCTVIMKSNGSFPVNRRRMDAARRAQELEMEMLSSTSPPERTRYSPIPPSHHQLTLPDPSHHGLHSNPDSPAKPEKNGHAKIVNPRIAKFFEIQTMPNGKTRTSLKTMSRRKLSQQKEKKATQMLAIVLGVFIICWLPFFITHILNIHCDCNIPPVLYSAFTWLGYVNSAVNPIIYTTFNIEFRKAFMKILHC
T2 sequence (Q99720 whole entry): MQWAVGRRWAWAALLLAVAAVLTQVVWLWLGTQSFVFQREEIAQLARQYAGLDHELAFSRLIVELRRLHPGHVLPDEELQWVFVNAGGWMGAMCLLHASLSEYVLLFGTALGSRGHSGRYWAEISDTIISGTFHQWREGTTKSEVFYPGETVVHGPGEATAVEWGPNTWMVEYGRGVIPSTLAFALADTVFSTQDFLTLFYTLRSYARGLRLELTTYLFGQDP
Chain of sigma-1 receptor (S1R) (Q99720 whole entry): as above
Chain of Sigma-1 (σ1R) (Q99720 whole entry, species assumed): as the sequence (Q99720 whole entry) above
T3 sequence (Q9R0C9 whole entry): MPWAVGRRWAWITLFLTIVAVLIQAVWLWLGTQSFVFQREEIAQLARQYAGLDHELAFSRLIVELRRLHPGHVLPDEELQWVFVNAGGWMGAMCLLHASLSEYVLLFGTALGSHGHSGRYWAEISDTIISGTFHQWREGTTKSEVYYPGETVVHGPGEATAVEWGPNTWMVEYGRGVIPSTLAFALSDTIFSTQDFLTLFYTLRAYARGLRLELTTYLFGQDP
Chain of Serotonin 5-HT1A (P08908 whole entry): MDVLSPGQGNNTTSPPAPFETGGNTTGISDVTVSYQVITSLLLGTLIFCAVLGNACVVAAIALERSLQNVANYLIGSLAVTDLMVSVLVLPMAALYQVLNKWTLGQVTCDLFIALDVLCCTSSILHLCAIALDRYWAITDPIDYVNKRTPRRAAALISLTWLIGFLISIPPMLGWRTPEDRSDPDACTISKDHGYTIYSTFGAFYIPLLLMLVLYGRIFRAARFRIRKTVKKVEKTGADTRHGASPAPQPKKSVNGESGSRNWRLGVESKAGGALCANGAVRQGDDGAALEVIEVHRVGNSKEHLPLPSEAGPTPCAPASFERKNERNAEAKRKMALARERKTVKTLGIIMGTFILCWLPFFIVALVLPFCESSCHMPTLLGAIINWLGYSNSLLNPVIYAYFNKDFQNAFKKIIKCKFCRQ
Chain of Serotonin transporter (SERT) (P31645 whole entry, species assumed): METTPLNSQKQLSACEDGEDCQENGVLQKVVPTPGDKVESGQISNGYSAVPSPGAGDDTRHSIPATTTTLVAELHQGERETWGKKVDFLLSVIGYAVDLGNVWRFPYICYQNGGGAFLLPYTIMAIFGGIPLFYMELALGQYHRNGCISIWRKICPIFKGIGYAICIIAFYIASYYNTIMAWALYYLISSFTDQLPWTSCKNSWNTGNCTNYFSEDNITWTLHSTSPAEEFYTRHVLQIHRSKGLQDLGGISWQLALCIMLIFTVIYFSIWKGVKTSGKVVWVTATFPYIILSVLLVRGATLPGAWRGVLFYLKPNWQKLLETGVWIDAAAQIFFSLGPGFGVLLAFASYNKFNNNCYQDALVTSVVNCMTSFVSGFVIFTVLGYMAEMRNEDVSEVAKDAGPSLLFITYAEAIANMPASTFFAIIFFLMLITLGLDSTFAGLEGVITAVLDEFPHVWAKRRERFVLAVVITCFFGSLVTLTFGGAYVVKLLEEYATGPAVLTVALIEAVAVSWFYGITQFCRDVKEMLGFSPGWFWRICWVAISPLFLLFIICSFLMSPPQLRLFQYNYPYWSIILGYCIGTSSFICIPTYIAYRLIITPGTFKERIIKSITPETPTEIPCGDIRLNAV
Chain of dopamine-2 receptor (D2R) (P14416 whole entry): as the sequence (P14416 whole entry) above
Chain of Adrenergic α2A (P08913 whole entry): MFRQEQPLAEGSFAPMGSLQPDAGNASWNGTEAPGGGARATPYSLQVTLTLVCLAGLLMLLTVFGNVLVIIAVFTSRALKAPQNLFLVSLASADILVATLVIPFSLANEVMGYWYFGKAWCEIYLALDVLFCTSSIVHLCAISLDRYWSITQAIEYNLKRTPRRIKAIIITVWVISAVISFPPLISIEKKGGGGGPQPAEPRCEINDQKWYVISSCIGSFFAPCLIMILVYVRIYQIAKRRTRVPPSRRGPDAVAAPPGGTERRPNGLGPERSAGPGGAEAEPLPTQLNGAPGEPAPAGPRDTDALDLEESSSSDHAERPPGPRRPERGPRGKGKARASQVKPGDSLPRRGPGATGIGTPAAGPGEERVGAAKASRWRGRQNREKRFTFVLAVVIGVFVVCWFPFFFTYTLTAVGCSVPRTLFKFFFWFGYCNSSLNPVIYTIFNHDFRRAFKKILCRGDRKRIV
Chain of Tachykinin NK1 (P25103 whole entry): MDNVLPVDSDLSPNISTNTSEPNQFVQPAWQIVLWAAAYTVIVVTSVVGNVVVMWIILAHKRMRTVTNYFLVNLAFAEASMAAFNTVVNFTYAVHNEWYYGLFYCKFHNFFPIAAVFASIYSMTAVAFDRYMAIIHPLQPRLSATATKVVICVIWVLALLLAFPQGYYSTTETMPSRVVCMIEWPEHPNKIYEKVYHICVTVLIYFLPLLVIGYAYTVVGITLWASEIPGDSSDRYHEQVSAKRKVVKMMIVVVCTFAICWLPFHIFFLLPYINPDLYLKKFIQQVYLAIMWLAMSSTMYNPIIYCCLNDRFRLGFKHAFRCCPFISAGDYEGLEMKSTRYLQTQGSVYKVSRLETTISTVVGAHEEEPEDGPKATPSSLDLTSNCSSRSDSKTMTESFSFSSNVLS
Chain of Dopamine transporter (DAT) (Q01959 whole entry, species assumed): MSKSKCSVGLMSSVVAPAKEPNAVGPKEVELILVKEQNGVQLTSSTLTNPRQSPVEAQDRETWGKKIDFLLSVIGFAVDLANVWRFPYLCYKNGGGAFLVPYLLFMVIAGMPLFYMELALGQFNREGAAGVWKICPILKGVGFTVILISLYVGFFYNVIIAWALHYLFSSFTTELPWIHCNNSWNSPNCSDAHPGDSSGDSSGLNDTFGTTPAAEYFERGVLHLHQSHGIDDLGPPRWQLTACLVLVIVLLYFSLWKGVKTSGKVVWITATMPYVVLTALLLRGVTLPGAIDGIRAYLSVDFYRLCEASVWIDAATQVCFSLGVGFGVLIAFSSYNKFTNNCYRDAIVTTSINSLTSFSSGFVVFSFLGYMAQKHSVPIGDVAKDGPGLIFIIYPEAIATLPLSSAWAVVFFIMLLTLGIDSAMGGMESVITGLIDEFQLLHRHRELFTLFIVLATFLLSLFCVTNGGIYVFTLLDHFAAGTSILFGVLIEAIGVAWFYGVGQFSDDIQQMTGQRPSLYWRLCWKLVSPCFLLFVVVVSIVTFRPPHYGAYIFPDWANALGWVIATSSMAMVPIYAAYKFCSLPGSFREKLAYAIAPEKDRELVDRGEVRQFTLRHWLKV
Chain of Serotonin 5-HT7 (P34969 whole entry): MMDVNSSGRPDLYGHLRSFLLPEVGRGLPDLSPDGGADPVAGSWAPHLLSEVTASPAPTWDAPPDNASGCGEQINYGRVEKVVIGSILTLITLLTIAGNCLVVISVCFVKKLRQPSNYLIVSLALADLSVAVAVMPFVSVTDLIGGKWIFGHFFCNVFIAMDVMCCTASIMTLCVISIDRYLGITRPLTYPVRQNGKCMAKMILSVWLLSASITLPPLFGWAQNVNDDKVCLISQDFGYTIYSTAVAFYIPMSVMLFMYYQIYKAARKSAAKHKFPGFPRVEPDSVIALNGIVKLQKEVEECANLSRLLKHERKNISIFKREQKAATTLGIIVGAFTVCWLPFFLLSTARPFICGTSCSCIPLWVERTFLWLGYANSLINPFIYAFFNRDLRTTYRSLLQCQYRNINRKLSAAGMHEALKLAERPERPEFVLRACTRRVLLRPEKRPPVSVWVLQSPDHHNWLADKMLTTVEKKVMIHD
Chain of Muscarinic M2 (P08172 whole entry): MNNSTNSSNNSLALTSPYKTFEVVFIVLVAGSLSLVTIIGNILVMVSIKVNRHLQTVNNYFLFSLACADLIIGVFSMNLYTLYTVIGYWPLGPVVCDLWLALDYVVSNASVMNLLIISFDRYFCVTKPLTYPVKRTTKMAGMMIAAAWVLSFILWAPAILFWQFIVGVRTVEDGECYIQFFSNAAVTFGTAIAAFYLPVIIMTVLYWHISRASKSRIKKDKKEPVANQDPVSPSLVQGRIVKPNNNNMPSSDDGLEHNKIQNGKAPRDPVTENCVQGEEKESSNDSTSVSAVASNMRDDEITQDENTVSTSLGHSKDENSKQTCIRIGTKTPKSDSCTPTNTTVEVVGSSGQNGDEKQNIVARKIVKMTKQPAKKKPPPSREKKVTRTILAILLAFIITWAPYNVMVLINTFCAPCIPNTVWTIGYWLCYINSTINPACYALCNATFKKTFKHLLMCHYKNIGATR

nH (Hill coefficient) (Adrenergic α2A): 0.98 | binding [1]: no observed binding | nH (Hill coefficient) (Muscarinic M2): 0.62 | binding (NMDAR): no observed binding | nH (Hill coefficient) (Serotonin 5-HT1A): 0.72 | nH (Hill coefficient) (Serotonin 5-HT2A): 0.81 | nH (Hill coefficient) (Serotonin 5-HT7): 1.02 | binding [2]: no observed binding | nH (Hill coefficient) (Sigma-1 (σ1R)): 0.87 | affinity for S1R compared to Dopamine D2R (Sigma-1 (σ1R); S1R vs D2R): approximately 100 fold | binding (Tachykinin NK1): no observed binding | receptor occupancy at 60 mg/kg (D2R [3]): 45% | % σ1R occupancy (σ1R [4]; NHP, 15 mg/kg PO, extrapolated from in vitro binding, 15 mg/kg): >80% | receptor occupancy at 7 mg/kg (σ1R [4]; po, read-out: % σ1R occupancy, NHP, 7 mg/kg PO, extrapolated from in vitro binding): 60 to 80% | receptor occupancy at 15 mg/kg (σ1R [4]; po, read-out: % σ1R occupancy, NHP, 15 mg/kg PO, extrapolated from in vitro binding): > 85% | receptor occupancy at 20 mg/kg (σ1R [4]; po, read-out: % σ1R occupancy, NHP, 20 mg/kg PO, extrapolated from in vitro binding): > 80% | receptor occupancy at 30 mg/kg (σ1R [4]; po, read-out: % σ1R occupancy, NHP, 30 mg/kg PO, extrapolated from in vitro binding): > 80% | receptor occupancy at 30 mg/kg (σ1R [4]; read-out: S1R occupancy (expected), high, effective dose (30 mg/kg, or 20 mg/kg in study 1)): > 80% | receptor occupancy at 20 mg/kg (σ1R [4]; read-out: S1R occupancy (expected), low, ineffective doses (7 and 15 mg/kg (study 1), 20 mg/kg in study 2)): > 80% | receptor occupancy at 60 mg/kg (σ1R [5]): > 85% | D2R blockage [7]: 3% | difference in drug-induced S1R occupancy between HV and HD patients (sigma-1 receptor (S1R); 90 mg): no differences | S1R occupancy (sigma-1 receptor (S1R); healthy volunteers, single oral dose 45 mg, 2 h after dosing): ~100% | S1R occupancy (sigma-1 receptor (S1R); healthy volunteers, single oral dose 90 mg, 2 h after dosing): ~100% | S1R occupancy (sigma-1 receptor (S1R); single oral dose 1 mg): approximately 40% | occupancy of the dopamine receptors (DARs) (estimated) (D2R [9]): minimal occupancy | receptor occupancy at 45 mg (σ1R [12]): > 90% | receptor occupancy at 90 mg (σ1R [12]): > 90% | receptor occupancy at 150 mg (σ1R [12]): > 90% | receptor occupancy at 45 mg (D2R [13]): ~3% | receptor occupancy at 90 mg (D2R [13]): ~30% | receptor occupancy at 150 mg (D2R [13]): > 40%
SMILES: CCCN1CCC(c2cccc(S(C)(=O)=O)c2)CC1 [pridopidine, 4-(3-(methylsulfonyl)phenyl)-1-propylpiperidine]
% D2R occupancy (D2R [6]; 7 mg/kg PO): <15% | % D2R occupancy (D2R [6]; 15 mg/kg PO): 15% | % D2R occupancy (D2R [6]; 20 mg/kg PO): 25% | % D2R occupancy (D2R [6]; 30 mg/kg PO): 40% | occupancy of low affinity dopamine receptors (expected) (D2R [6]; high, effective dose (30 mg/kg, or 20 mg/kg in study 1)): about 40% | occupancy of low affinity dopamine receptors (expected) (D2R [6]; low, ineffective doses (7 and 15 mg/kg (study 1), 20 mg/kg in study 2)): about 10% | D2R-occupancy (D2R [6]; macaques, effective doses (20 to 30 mg/kg)): 25-40% | anti-parkinsonian benefit of L-DOPA [8]: does not affect the anti-parkinsonian benefit of L-DOPA | bad quality on-time evoked by levodopa [8]: improves the bad quality on-time | symptoms of dyskinesia [8]: effective in improving symptoms of dyskinesia | symptoms of dyskinesia [10]: effective (provides at least an additive effect or more than an additive effect) | symptoms of DIMD [11]: effective (provides at least an additive effect or more than an additive effect) | % σ1R occupancy (σ1R [14]): 60% | % D2R occupancy (D2R [15]; 3 mg/kg PO): 0% | % D2R occupancy (D2R [15]; 15 mg/kg PO): 0% | L-DOPA-induced sensitization of contraversive-rotation (6-OHDA-lesioned rat): decreased | anti-parkinsonian benefit of L-DOPA (6-OHDA-lesioned rat): no decrease | motor function, UHDRS Total Motor Score (TMS) [16]: significantly improved motor function
